Experimental data as given in ChEMBL document CHEMBL4033708, “Synthesis and molecular docking study of some 5,6-dichloro-2-cyclopropyl-1H-benzimidazole derivatives bearing triazole, oxadiazole, and imine functionalities as potent inhibitors of urease” (Bioorg Med Chem Lett, 2017).
pIC50: −log10 of the molar value.

Biological target: Urease (Canavalia ensiformis, UniProt P07374)
Assay: Inhibition of jack bean urease using urea as substrate pretreated for 15 mins followed by substrate addition by phenol red based spectrophotometric method

Chain of Urease (P07374 whole entry): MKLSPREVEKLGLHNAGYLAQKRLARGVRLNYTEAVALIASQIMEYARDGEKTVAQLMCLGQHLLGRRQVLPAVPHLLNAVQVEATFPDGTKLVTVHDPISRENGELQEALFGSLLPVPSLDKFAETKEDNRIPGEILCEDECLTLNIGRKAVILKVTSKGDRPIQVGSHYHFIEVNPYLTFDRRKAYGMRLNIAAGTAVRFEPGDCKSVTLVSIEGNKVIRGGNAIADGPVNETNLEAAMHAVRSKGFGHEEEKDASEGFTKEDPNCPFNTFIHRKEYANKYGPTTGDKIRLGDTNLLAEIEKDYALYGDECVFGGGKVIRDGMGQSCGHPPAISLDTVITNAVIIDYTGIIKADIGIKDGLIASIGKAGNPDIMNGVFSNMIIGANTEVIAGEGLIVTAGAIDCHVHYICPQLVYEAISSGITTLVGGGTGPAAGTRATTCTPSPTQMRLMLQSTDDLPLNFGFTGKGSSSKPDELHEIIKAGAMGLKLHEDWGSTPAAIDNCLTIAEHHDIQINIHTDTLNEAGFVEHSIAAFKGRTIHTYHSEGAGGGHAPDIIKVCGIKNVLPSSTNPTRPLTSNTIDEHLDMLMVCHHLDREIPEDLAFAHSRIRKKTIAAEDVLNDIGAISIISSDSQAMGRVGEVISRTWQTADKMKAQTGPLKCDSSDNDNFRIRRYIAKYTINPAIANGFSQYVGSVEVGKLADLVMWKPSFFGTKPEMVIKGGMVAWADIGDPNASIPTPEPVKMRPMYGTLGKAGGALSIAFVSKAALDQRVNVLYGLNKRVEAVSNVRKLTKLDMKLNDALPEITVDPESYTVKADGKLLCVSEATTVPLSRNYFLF

SMILES | pIC50
NNC(=O)Cn1c(C2CC2)nc2cc(Cl)c(Cl)cc21 | 5.72
O=C(Cn1c(C2CC2)nc2cc(Cl)c(Cl)cc21)N/N=C/c1ccccc1O | 6.66
Clc1cc2nc(C3CC3)[nH]c2cc1Cl | 6.77
O=C(Cn1c(C2CC2)nc2cc(Cl)c(Cl)cc21)N/N=C/c1cc(Br)ccc1O | 6.85
Sc1nnc(Cn2c(C3CC3)nc3cc(Cl)c(Cl)cc32)o1 | 5.87
CN(C)c1ccc(/C=N/NC(=O)Cn2c(C3CC3)nc3cc(Cl)c(Cl)cc32)cc1 | 5.83
CCn1c(S)nnc1Cn1c(C2CC2)nc2cc(Cl)c(Cl)cc21 | 6.42
COC(=O)Cn1c(C2CC2)nc2cc(Cl)c(Cl)cc21 | 5.95
CCNC(=S)NNC(=O)Cn1c(C2CC2)nc2cc(Cl)c(Cl)cc21 | 6.55
O=C(Cn1c(C2CC2)nc2cc(Cl)c(Cl)cc21)N/N=C/c1cc(Cl)ccc1O | 6.82
O=C(Cn1c(C2CC2)nc2cc(Cl)c(Cl)cc21)N/N=C/c1ccc(F)c(Br)c1 | 7.22
O=C(Cn1c(C2CC2)nc2cc(Cl)c(Cl)cc21)N/N=C/c1ccccc1 | 5.68
CNC(=S)NNC(=O)Cn1c(C2CC2)nc2cc(Cl)c(Cl)cc21 | 7.22 to 7.30
O=C(Cn1c(C2CC2)nc2cc(Cl)c(Cl)cc21)N/N=C/c1ccc(Cl)cc1 | 6.54
Cn1c(S)nnc1Cn1c(C2CC2)nc2cc(Cl)c(Cl)cc21 | 6.77
NC(N)=S [THIOUREA] | 6.25
